Laboratory results: ChEMBL document CHEMBL1201862, “PubChem BioAssay data set” (2004)
Active and inactive are the calls of the source.

How the values were obtained:
[1] = molecular target: T1, Nuclear receptor subfamily 0 group B member 1 (Homo sapiens, UniProt P51843); assay: Luminescence-based cell-based high throughput dose response assay for inhibitors of the orphan nuclear receptor subfamily 0, group B, member 1 (DAX1; NR0B1). [Related pubchem assays (depositor defined):AID504766, AID504790]; format: functional
T1 sequence (P51843 whole entry): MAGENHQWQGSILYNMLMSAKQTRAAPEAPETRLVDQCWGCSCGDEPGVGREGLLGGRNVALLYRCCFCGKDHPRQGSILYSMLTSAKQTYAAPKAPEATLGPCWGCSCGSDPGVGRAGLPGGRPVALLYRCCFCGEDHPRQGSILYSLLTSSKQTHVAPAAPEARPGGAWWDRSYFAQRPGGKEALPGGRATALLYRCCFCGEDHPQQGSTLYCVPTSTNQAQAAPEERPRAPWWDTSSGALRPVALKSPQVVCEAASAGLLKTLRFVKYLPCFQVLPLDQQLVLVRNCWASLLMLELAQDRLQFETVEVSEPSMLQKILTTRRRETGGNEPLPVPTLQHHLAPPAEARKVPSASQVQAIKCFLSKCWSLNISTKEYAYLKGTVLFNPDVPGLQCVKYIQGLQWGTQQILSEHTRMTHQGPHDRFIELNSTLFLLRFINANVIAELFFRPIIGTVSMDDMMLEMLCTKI

[2] = molecular target: T2, CAAX prenyl protease 2 (Saccharomyces cerevisiae S288c, UniProt Q03530); format: biochemical
T2 sequence (Q03530 whole entry): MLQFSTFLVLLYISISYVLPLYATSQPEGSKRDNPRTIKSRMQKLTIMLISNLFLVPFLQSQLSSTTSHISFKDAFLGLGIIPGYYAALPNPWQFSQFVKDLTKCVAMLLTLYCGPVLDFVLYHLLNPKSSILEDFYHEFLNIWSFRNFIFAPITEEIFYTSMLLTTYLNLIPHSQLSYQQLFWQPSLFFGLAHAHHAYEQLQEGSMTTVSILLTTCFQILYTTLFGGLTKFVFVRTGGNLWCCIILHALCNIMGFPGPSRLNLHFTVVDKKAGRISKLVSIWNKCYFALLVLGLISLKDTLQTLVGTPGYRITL

[3] = system: HEK293; assay: cells; format: functional, cell-based; settings: Homo sapiens
[4] = inhibitors of Trypanosoma cruzi host-cell infection, confirmation, beta-gal luminescence, NIH3T3 host cells (AID 2630); format: functional, cell-based; settings: Mus musculus
[5] = Luminescence Cell-Based/Microorganism Confirmation at Dose of Inhibitors of Trypanosoma cruzi Infection. [Related pubchem assays: 1885, 1968 ]; format: functional
[6] = Luminescence Cell-Based Secondary HTS screen to identify cytotoxic compounds of NIH3T3 cells. [Related pubchem assays: 1885, 1968 ]; format: functional
[7] = growth induction of Burl-1 ts yeast mutant, dose response, counter-screen for SUMOylation pathway inhibitor project, whole organism, S. cerevisiae, luminescence (AID 463199); format: functional
[8] = molecular target: Cytochrome P450 2C9 (Homo sapiens, UniProt P11712)
Cytochrome P450 2C9, sequence (P11712 whole entry): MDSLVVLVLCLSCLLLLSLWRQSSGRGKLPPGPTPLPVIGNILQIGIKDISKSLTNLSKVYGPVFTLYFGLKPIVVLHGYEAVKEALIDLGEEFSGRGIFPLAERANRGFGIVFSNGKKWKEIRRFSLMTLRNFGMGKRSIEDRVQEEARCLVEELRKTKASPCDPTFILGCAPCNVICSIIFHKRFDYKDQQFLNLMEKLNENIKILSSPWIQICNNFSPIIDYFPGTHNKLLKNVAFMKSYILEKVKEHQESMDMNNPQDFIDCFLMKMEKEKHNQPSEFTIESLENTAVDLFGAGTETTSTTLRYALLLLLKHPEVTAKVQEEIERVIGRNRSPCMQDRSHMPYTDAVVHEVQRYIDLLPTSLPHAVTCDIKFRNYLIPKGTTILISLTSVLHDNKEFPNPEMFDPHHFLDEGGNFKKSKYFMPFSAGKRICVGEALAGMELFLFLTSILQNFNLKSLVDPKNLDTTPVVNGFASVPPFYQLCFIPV

[9] = molecular target: T3, Cytochrome P450 1A2 (Homo sapiens, UniProt P05177);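 further: PubChem cytochrome P450 panel assay, CYP1A2 panel member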
T3 sequence (P05177 whole entry): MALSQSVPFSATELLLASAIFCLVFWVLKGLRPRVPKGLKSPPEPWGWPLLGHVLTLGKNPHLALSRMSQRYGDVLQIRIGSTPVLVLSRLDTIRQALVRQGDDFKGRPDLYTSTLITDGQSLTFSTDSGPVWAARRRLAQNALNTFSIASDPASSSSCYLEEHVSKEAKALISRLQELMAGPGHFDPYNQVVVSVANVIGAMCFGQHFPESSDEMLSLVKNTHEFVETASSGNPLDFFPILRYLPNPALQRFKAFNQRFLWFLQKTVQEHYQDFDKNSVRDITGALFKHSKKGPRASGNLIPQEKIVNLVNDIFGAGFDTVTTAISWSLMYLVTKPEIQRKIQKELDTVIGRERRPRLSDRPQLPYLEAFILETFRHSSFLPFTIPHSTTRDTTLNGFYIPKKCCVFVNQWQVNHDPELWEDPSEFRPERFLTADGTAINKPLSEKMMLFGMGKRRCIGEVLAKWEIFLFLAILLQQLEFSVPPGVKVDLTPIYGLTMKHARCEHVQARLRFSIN

[10] = molecular target: T4, Dual specificity protein phosphatase 3 (Homo sapiens, UniProt P51452); assay: SAR VHR1 Fluorescent Assay for In Vitro dose response studies. [Related pubchem assays (depositor defined):AID1654, AID1661, AID1878, AID1992, AID2004, AID2070, AID2085]; format: functional
T4 sequence (P51452 whole entry): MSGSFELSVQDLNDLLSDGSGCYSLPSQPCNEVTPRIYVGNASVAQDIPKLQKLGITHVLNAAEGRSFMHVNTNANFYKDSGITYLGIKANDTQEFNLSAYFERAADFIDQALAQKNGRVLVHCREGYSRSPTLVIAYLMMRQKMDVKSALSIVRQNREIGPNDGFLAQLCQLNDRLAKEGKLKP

[11] = molecular target: T4, Dual specificity protein phosphatase 3; assay: MOA VHR1 Fluorescent secondary assay for identification of redox-state modulating compounds. [Related pubchem assays (depositor defined):AID1654, AID1661, AID1878, AID1957]
[12] = molecular target: Dual specificity protein phosphatase 6 (Rattus norvegicus, UniProt Q64346); format: functional;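 further: confirmatory in vitro dose-response testing of MKP-3 inhibition; recombinant His-tagged MKP-3 made in E. coli BL21 with OMFP substrate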
Dual specificity protein phosphatase 6, sequence (Q64346 whole entry): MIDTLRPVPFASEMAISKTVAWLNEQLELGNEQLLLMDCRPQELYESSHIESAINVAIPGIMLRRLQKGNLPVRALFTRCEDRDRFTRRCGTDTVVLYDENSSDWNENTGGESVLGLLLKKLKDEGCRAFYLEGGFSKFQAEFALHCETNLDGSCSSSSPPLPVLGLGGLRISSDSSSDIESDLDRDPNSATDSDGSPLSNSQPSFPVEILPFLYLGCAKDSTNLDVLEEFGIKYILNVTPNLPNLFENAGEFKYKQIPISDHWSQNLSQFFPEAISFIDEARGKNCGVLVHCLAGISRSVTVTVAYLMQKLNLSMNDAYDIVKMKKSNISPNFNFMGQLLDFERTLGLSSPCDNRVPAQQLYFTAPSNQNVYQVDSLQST

[13] = molecular target: Tyrosine-protein phosphatase non-receptor type 7 (Homo sapiens, UniProt P35236); assay: redox-dependent HePTP inhibition, mechanism study, biochemical, fluorescence (AID 2068); format: functional
Tyrosine-protein phosphatase non-receptor type 7, sequence (P35236 whole entry): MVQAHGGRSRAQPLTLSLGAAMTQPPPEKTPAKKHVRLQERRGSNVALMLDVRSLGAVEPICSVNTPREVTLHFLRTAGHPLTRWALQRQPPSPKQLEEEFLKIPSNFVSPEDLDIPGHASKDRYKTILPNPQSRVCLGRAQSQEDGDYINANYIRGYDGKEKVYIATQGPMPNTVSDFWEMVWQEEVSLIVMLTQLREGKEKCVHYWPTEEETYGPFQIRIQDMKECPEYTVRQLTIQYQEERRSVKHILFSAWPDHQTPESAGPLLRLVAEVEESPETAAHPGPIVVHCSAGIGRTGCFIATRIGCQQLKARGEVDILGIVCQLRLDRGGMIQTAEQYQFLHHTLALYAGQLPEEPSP

[14] = NIH-3T3 fibroblast cytotoxicity, dose response, cytotoxicity control, cell-based, fluorescence, Alamar Blue, secondary assay (AID 2327); format: functional;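 further: NIH-3T3 mouse fibroblasts cultured with fluconazole at 8 µg/mL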
[15] = molecular target: Serine/threonine-protein phosphatase (Candida dubliniensis (strain CD36 / CBS 7987 / NCPF 3949 / NRRLY-17841) (Yeast), UniProt B9W6M3); assay: calcineurin pathway inhibitors in yeast reporter, dose response, S. cerevisiae, CDRE-lacZ, luminescence, secondary (AID 2388); format: functional, cell-based;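 further: yeast reporter cells carrying a calcineurin-responsive lacZ construct stimulated with calcium chloride; luminescent beta-galactosidase reporter signal in whole cells rather than isolated phosphatase activity; potency for inhibition where a drop in reporter signal means calcineurin blockade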
Serine/threonine-protein phosphatase, sequence (B9W6M3 whole entry): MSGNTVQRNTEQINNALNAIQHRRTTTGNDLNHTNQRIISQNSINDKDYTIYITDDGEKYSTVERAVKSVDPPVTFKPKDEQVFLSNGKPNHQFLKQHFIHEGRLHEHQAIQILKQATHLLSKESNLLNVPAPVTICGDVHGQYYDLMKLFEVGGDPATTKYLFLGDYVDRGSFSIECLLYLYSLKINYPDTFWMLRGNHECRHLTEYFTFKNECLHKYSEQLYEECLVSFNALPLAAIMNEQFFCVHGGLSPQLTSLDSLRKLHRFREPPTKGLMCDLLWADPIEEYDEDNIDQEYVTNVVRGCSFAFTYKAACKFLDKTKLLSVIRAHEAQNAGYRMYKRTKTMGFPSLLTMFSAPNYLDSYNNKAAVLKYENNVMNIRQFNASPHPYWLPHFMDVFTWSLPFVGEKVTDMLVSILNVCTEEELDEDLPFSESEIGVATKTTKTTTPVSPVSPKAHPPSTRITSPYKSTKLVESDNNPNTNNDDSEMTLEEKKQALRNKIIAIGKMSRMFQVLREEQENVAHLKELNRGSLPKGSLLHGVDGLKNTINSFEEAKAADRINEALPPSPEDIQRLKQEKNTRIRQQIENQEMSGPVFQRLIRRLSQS

[16] = molecular target: ATP-dependent molecular chaperone HSP82 (Candida albicans (strain WO-1) (Yeast), UniProt C4YTQ8); assay: loss of DOC-induced GRE-beta-galactosidase reporter signal, dose response, Hsp90 inhibitor project, S. cerevisiae, luminescence (AID 2400); format: functional, cell-based;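 further: beta-galactosidase luminescence from glucocorticoid response element reporter as proxy for Hsp90 function; inhibitor potency where signal loss means Hsp90 inhibition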
[17] = C. albicans growth with fluconazole, confirmation, fluorescence, retest (AID 2467); format: functional, cell-based
[18] = system: NIH3T3; assay: mammalian cell toxicity, NIH-3T3 fibroblasts, dose response, cytotoxicity control for reversing antifungal drug resistance, Alamar Blue, dry powder, set 3 (AID 488933); format: functional, cell-based; settings: Mus musculus
[19] = molecular target: T3, Cytochrome P450 1A2; remark: listed apart in the source
[20] = molecular target: Keap1/Nrf2 (Homo sapiens, UniProt Q14145); assay: Keap1-Nrf2 protein-protein interaction inhibitors, dose response, biochemical, fluorescence polarization, cherry-picked samples (AID 588683)
Keap1/Nrf2, sequence (Q16236 whole entry): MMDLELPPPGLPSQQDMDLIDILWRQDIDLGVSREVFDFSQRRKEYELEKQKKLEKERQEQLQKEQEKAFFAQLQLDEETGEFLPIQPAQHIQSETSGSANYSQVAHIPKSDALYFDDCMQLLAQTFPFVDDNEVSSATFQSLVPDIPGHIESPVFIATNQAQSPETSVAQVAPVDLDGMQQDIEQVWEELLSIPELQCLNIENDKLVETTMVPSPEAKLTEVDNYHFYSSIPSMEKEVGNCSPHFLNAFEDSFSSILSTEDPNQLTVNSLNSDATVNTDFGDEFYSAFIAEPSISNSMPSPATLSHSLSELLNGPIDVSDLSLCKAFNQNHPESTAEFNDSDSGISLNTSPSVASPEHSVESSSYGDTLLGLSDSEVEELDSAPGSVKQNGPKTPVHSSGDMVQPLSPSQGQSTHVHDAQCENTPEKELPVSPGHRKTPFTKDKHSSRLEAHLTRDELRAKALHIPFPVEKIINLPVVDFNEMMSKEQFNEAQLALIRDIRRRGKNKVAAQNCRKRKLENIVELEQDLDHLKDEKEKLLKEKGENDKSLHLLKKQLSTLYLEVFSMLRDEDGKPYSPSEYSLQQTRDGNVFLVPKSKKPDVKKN
Keap1/Nrf2, sequence (Q14145 whole entry): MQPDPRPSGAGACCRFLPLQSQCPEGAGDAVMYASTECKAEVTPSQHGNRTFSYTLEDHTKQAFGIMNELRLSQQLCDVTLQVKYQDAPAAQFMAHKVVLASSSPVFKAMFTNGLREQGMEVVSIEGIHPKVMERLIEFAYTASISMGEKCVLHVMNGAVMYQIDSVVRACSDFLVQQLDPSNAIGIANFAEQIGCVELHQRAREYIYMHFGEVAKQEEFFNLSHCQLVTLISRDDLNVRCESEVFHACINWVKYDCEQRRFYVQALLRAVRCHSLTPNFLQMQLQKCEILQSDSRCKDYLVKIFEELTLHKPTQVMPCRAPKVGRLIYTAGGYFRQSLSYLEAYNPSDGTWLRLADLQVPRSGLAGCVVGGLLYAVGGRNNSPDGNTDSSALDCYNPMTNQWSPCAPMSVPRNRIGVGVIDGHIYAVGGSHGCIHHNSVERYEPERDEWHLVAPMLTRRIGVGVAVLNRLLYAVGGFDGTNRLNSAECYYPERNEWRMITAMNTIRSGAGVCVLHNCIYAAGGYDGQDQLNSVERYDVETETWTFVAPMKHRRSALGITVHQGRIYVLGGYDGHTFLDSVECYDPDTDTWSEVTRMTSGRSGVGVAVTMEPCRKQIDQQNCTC

[21] = molecular target: Cytochrome P450 2D6 (Homo sapiens, UniProt P10635);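 further: CYP2D6 member of a cytochrome P450 panel assay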
Cytochrome P450 2D6, sequence (P10635 whole entry): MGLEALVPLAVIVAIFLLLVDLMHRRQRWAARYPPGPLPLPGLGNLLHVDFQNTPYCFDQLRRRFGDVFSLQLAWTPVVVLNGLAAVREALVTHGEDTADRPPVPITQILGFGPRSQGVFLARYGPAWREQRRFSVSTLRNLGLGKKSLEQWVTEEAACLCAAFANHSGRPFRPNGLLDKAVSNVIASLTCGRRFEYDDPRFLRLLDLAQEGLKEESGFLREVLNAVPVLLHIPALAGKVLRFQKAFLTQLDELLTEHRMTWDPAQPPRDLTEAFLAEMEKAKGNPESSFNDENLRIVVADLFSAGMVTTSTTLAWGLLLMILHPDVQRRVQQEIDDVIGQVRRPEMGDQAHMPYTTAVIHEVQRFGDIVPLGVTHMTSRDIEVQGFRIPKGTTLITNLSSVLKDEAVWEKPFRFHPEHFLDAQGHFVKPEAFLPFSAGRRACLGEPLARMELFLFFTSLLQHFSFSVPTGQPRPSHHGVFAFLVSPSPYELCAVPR

[22] = molecular target: Troponin, cardiac muscle (Homo sapiens, UniProt P19429+P45379+P63316); assay: Fluorescence-based biochemical high throughput dose response assay for activators of the calcium sensitivity of cardiac Regulated Thin Filaments (RTF). [Related pubchem assays (depositor defined):AID493008, AID493018, AID504382, AID504383]; format: protein-complex assay
[23] = molecular target: Hexokinase-1 (Homo sapiens, UniProt P19367); assay: SAR analysis of small molecule inhibitors of hexokinase domain containing I (HKDC1) in the hexokinase 1 selectivity assay. [Related pubchem assays (depositor defined):AID493160, AID493190]; format: functional
Hexokinase-1, sequence (P19367 whole entry, the tested form may be a part): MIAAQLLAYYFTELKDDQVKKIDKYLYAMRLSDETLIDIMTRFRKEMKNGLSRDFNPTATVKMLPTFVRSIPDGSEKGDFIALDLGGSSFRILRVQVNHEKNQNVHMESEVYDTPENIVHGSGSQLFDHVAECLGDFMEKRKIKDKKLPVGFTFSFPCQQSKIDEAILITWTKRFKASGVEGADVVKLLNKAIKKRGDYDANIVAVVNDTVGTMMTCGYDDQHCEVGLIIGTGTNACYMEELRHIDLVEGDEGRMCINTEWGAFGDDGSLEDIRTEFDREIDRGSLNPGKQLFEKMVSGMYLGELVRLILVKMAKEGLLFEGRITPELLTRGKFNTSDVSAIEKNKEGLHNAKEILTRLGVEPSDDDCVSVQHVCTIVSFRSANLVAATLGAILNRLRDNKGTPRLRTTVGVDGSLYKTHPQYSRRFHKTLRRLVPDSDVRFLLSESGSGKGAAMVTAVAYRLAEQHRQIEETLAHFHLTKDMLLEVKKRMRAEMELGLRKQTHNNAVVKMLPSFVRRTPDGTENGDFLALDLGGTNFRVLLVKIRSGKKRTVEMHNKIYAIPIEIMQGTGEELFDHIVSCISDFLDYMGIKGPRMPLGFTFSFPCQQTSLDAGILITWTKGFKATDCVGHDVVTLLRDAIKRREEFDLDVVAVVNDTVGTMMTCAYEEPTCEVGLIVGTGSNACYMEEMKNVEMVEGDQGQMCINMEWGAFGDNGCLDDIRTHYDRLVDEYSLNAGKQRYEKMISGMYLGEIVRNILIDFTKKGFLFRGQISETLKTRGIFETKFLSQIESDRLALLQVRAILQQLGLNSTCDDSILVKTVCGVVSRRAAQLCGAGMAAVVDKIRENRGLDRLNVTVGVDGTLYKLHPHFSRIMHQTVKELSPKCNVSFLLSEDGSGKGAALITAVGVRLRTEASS

[24] = molecular target: T5, Hexokinase HKDC1 (Homo sapiens, UniProt Q2TB90); assay: SAR analysis of small molecule inhibitors of hexokinase domain containing I (HKDC1). [Related pubchem assays (depositor defined):AID493160, AID493190]; format: functional
T5 sequence (Q2TB90 whole entry): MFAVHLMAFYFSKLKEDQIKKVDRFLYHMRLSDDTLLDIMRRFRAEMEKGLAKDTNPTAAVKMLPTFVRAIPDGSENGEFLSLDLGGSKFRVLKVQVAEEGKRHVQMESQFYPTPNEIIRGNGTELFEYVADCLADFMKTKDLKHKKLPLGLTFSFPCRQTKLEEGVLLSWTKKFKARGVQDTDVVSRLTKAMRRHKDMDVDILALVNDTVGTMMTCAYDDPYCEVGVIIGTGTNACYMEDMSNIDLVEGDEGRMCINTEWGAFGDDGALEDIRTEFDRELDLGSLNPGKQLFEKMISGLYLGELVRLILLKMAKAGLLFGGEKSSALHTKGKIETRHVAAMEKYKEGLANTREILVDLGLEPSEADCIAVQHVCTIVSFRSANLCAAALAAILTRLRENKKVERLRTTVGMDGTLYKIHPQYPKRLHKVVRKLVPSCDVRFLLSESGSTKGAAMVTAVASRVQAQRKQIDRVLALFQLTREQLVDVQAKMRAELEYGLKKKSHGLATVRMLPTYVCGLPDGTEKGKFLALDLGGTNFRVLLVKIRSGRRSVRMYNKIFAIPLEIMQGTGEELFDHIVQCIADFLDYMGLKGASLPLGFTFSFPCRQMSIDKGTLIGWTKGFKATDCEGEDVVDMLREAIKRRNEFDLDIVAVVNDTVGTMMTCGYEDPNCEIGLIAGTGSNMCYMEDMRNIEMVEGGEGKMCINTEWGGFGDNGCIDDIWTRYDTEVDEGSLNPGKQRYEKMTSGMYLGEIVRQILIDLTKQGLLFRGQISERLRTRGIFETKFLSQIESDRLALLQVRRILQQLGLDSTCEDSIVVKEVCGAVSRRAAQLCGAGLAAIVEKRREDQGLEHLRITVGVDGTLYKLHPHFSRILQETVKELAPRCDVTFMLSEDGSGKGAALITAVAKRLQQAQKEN

[25] = system: INS1; assay: caspase-3/7 inhibition in cytokine-treated INS-1E, dose response, beta-cell apoptosis inhibitor project, cell-based, caspase luminescence, dry powder (AID 488848); format: functional; settings: Rattus norvegicus
[26] = Luminescence Cell-Based Dose Response HTS to Identify Inhibitors of 5'UTR Stem-Loop Driven Prion Protein mRNA Translation in H4 Neuroglioblastoma Cells. [Related pubchem assays: 1827 (Project Summary), 1813 (Primary HTS)]; format: functional
[27] = system: Jurkat; assay: antigen receptor-induced NF-kB inhibitors, dose response, Jurkat, luciferase reporter, luminescence, B- and T-cell (AID 489004); format: functional, cell-based; settings: Homo sapiens;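 further: NF-kB luciferase reporter Jurkat cells stimulated with PMA plus ionomycin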
[28] = inhibitors of SNCA 5'UTR-driven translation, confirmation, luminescence, H4 neuroglioblastoma cells, dose confirmation (AID 2454); format: functional, cell-based;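 further: H4 neuroglioblastoma cells carrying an alpha-synuclein 5'UTR luciferase reporter; potency for inhibition of the luciferase signal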
[29] = inhibitors of SNCA 5'UTR-driven reporter translation, confirmation, H4 neuroglioma cells, luminescence (AID 1988); format: functional, cell-based
[30] = cytotoxicity in HEK-293T NF-kB-Luc cells, dose response, cytotoxicity control for B/T-cell NF-kB inhibitor project, cell-based, uHTS hits (AID 489019); format: functional;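 further: IC50 reflects cytotoxicity as loss of cell viability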
[31] = cells; format: functional, cell-based
[32] = luciferase reporter signal reduction – luminescence, H4-C neuroglioblastoma cells, dose response (AID 2458); format: functional, cell-based;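 further: H4 neuroglioblastoma cells stably carrying a luciferase reporter gene fusion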
[33] = inhibitors of firefly luciferase expression or activity, dose response, H4 neuroglioma cells, luminescence (AID 1990); format: functional, cell-based

O=C(Nc1ccc2c(c1)CCC2)c1ccccc1Br
IC50 [1]: > 67.6 µM (inactive) | AC50 [2]: 8.42 µM (active) | IC50 [3]: > 67.6 µM (inactive)

CC1CC(C)CN(CCOCCSc2ccccc2)C1 (stereo not drawn)
EC50 [4]: 0.098 µM (active) | EC50 [5]: 0.098 µM (active) | EC50 [6]: > 195 µM (not active)

Cc1cccc(N2C(=O)/C(=C/c3cccnc3)SC2=S)c1
AC50 [7]: 51.7 µM (active)

CC(=O)N1CCC2(CC1)CN(c1ccncc1)C2
AC50 [8]: inconclusive | AC50 [9]: inconclusive

CCOC(=O)C1=C(c2ccccc2)N=c2sc(=Cc3cc(OC)c(OC)c(OC)c3)c(=O)n2C1c1cccs1 (stereo not drawn)
IC50 [10]: > 50 µM (inactive) | IC50 [11]: > 50 µM (inactive) | IC50 [12]: > 50 µM (inactive) | IC50 [13]: > 50 µM (inactive)

COc1cccc(C2CC(c3ccc(NS(C)(=O)=O)cc3)=NN2C(=O)c2ccccc2)c1OC (stereo not drawn)
EC50 [14]: > 150 µM (inactive) | EC50 [15]: > 180 µM (inactive) | EC50 [16]: > 150 µM (inactive) | EC50 [17]: 1.17 µM (active)

O=C(c1ccccc1)N1CCN(c2ccccn2)CC1
AC50 [18]: 184 µM (active)

CN1CCC2(CC1)C1CN(C)CC=C1C(C#N)=C(N)C2(C#N)C#N (stereo not drawn)
AC50 [19]: 20 µM (inconclusive) | AC50 [20]: > 52 µM (inactive) | AC50 [21]: 14.1 µM (inconclusive) | EC50 [22]: 9 µM (active)

O=c1c2ccccc2nc(/C=C/c2ccc(Cl)cc2)n1Cc1ccccc1
IC50 [23]: > 80 µM (inactive) | IC50 [24]: > 80 µM (inactive)

COc1ccc(S(=O)(=O)N(C)C[C@@H]2Oc3c(NC(=O)Nc4cccc5c4CCCC5)cccc3C(=O)N([C@@H](C)CO)C[C@H]2C)cc1
AC50 [25]: 52.3 µM (active)

Cc1nn(C(C)(C)C)c(C)c1/C=N/OC(=O)Nc1ccc(Cl)cc1
EC50 [26]: < 0.1 µM (active) | IC50 [27]: < 0.16 µM (active) | EC50 [28]: 0.037 µM (active) | EC50 [29]: < 0.1 µM (active) | IC50 [30]: > 80 µM (inactive) | EC50 [31]: 0.075 µM (active) | EC50 [32]: 0.059 µM (active) | EC50 [33]: < 0.1 µM (active)
